Test results: ChEMBL document CHEMBL1909498, “Secoiridoid glucosides and related compounds from Syringa reticulata and their antioxidant activities” (Bioorg Med Chem Lett, 2011)

Assays:
[1] = Antioxidant activity assessed as superoxide radical scavenging activity after 20 mins by spectrophotometric analysis; assay type: functional
[2] = system: Radical scavenging activity; assay: Antioxidant activity assessed as DPPH radical scavenging activity after 30 mins by spectrophotometric analysis; assay type: functional

Compound	EC50 [1]	EC50 [2]
C/C=C1/[C@H](O[C@@H]2O[C@H](CO)[C@@H](O)[C@H](O)[C@H]2O)OC=C(C(=O)OC)[C@H]1CC(=O)OC[C@H]1O[C@@H](Oc2c(OC)cc(/C=C/CO)cc2OC)[C@H](O)[C@@H](O)[C@@H]1O [RETICULOSIDE]	64.1 µM	> 100 µM
C/C=C1/[C@H](O[C@@H]2O[C@H](CO)[C@@H](O)[C@H](O)[C@H]2O)OC=C(C(=O)OC)[C@H]1CC(=O)OC[C@H]1O[C@@H](O[C@@H]2OC=C(C(=O)OC)[C@@H](CC(=O)OCCc3ccc(O)c(O)c3)/C2=C\C)[C@H](O)[C@@H](O)[C@@H]1O [JASPOLYOSIDE]	4.97 µM	> 100 µM
COc1cc([C@@H]2OC[C@@](O)(Cc3ccc(O[C@@H]4O[C@H](CO)[C@@H](O)[C@H](O)[C@H]4O)c(OC)c3)[C@H]2CO)ccc1O	25.3 µM	> 100 µM
COc1cc([C@H]2c3cc(O[C@@H]4O[C@H](CO)[C@@H](O)[C@H](O)[C@H]4O)c(OC)cc3C[C@@](O)(CO)[C@@H]2CO)ccc1O	39.3 µM	> 100 µM
COc1cc(/C=C/CO[C@H]2O[C@@H](CO)[C@H](O)[C@@H](O)[C@@H]2O)cc(OC)c1O[C@@H]1O[C@H](CO)[C@@H](O)[C@H](O)[C@H]1O [ISOSYRINGINOSIDE]	14.1 µM	> 100 µM
COc1cc(/C=C/C=O)cc(OC)c1O[C@@H]1O[C@H](CO)[C@@H](O)[C@H](O)[C@H]1O [SINAPALDEHYDE GLUCOSIDE]	> 100 µM	> 100 µM
COc1cc(C[C@@H]2CO[C@@H](c3cc(OC)c(O)c(OC)c3)[C@@H]2CO)ccc1O[C@@H]1O[C@H](CO)[C@@H](O)[C@H](O)[C@H]1O [ARMANDISIDE]	10.6 µM	> 100 µM
OC[C@H]1O[C@@H](OCCc2ccc(O)c(O)c2)[C@H](O)[C@@H](O)[C@@H]1O	4.97 µM	33 µM
OC[C@H]1O[C@@H](OCCc2ccc(O)cc2)[C@H](O)[C@@H](O)[C@@H]1O [SALIDROSIDE]	> 100 µM	> 100 µM
COc1cc([C@H]2OC[C@H]3[C@@H]2CO[C@@H]3c2ccc(O[C@@H]3O[C@H](CO)[C@@H](O)[C@H](O)[C@H]3O)c(OC)c2)ccc1O	18.6 µM	> 100 µM
COc1cc(C[C@]2(O)CO[C@@H](c3ccc(O[C@H]4O[C@@H](CO)[C@H](O)[C@@H](O)[C@@H]4O)c(OC)c3)[C@@H]2CO)ccc1O	> 100 µM	> 100 µM
COc1cc([C@H]2OC[C@H]3[C@@H]2CO[C@@H]3c2cc(OC)c(O[C@@H]3O[C@H](CO)[C@@H](O)[C@H](O)[C@H]3O)c(OC)c2)cc(OC)c1O[C@H]1O[C@@H](CO)[C@H](O)[C@@H](O)[C@@H]1O [LIRIODENDRTACHIOSIDE]	16 µM	> 100 µM
COc1cc([C@H]2OC[C@H]3[C@@H]2CO[C@@H]3c2cc(OC)c(O[C@@H]3O[C@H](CO)[C@@H](O)[C@H](O)[C@H]3O)c(OC)c2)cc(OC)c1O	> 100 µM	> 100 µM
COc1cc(/C=C/C=O)ccc1O[C@@H]1O[C@H](CO)[C@@H](O)[C@H](O)[C@H]1O [CONIFERYALDEHYDE GLUCOSIDE]	> 100 µM	> 100 µM
C/C=C1/[C@H](O[C@@H]2O[C@H](CO)[C@@H](O)[C@H](O)[C@H]2O)OC=C(C(=O)OC)[C@H]1CC(=O)OCCc1ccc(O)c(O)c1 [OLEUROPEIN]	2.57 µM	20.8 µM
COc1cc(/C=C/CO)cc(OC)c1O[C@@H]1O[C@H](CO)[C@@H](O)[C@H](O)[C@H]1O [SYRINGIN]	70.9 µM	> 100 µM
C/C=C1/[C@H](O[C@@H]2O[C@H](CO)[C@@H](O)[C@H](O)[C@H]2O)OC=C(C(=O)OC)[C@H]1CC(=O)OCCc1ccc(O)cc1 [LIGSTROSIDE]	> 100 µM	> 100 µM
